{"source": "paper PMC12114947", "about": "“Evaluation of Violacein Metabolic Stability and Metabolite Identification in Human, Mouse, and Rat Liver Microsomes” (Pharmaceutics, 2025)", "key": {"[1]": {"assay": "In vitro metabolic stability in mouse liver microsomes", "assay_type": "in vitro ADME", "procedure": "(§1) After removal, a pool consisting of livers from five naïve male rats and five C57BL male mice was immediately placed in a 50 mM Tris-HCl buffer, pH 7.4, containing 150 mM KCl. The livers were diced with scissors and washed three times with buffer, followed by homogenization with 20 mL of buffer in a Potter-type homogenizer (three cycles, with each cycle comprising three grindings of 1 min each at 1000 rpm). The homogenate was centrifuged at 10,000× g for 15 min at 4 °C. The resulting supernatant was then ultracentrifuged at 100,000× g for 60 min at 4 °C to obtain the microsomal pellet, which was resuspended in 50 mM HEPES-HCl buffer, pH 7.4, containing 20% glycerol and 1 mM EDTA.\n(§2) The metabolic stability of volacein was assessed as described by Godoi et al. and Antunes et al.. Aliquots (4 µL) of 100 µM violacein working solution and 96 µL of the NADPH-regenerating system, containing 1.1 mM NADP^+, 10 mM glucose-6-phosphate, 1 U/mL glucose-6-phosphate dehydrogenase, 5 mM sodium citrate, and 66 mM magnesium chloride in 100 mM phosphate buffer, pH 7.4, were transferred to propylene tubes and pre-incubated for 5 min in an MTC 100 thermo shaker incubator (Miulab, Zhejiang, China) at 300 rpm and 37 °C. Subsequently, the metabolic reactions were initiated by adding 100 μL of microsomal proteins from HLMs, RLMs, and MLMs at a concentration of 2 mg/mL to the pre-incubated shaking tubes, resulting in final concentrations of 2 μM for violacein and 1 mg/mL for microsomal proteins. In this experiment, seven incubation times were planned for each species (0, 3, 5, 15, 30, 60, and 120 min), in triplicate. At each time interval, the reactions were stopped by adding 400 μL of ice-cold acetonitrile spiked with 10 µM omeprazole (IS) to each tube. Finally, the samples were vortexed for 5 min in a BenchMixer^TM XL (Benchmark, NJ, USA) and centrifuged at 12,000× g for 15 min at 4 °C (Hettich® Universal 320 R, Tuttlingen, Germany). The supernatants were transferred to a 96-well plate and 8 μL was injected into the LC-MS/MS system (see Section 2.3).\n(§3) All incubations were performed simultaneously with positive and negative controls. The positive controls were prepared by incubating dapaconazole at the same conditions as violacein (final concentrations: 2 μM) and its metabolic stability was compared with previous studies. Similarly, the negative controls were prepared by incubating violacein in buffer solution, in the absence of microsome and cofactor solutions.\n(§4) Violacein was analyzed using LC-MS/MS (LC-QQQ MS, LCMS8045, Shimadzu, Kyoto, Japan). Chromatographic separation was achieved on a Raptor^TM Biphenyl column (2.1 × 100 mm, 2.7 μm) at 40 °C. The mobile phases consisted of water (mobile phase A) and methanol (mobile phase B), both containing 2 mM ammonium formate and 0.1% (v/v) formic acid. A flow rate of 0.3 mL/min was used with an elution gradient starting at 20% mobile phase B and holding for 0.2 min, followed by a linear increase to 95% mobile phase B over 2 min that was then maintained for 1 min, with a return to the initial condition in 0.2 min. The total chromatographic run time was 5 min.\n(§5) In vitro t1/2 was calculated using to the following equation [60, 61]:(1) t1/2=ln(2)/k where k is the slope of the log-linear regression graph of the percentage of drug remaining as a function of time.\n(§6) CLint, in vitro was calculated using to the following equation [60, 61]:(2) CLint, in vitro=0.693/t1/2×Vincubation/mmicrosomes where Vincubation indicates the volume of the incubation in μL and mmicrosomes indicates the mass of microsomal proteins added to the incubation solution in mg. […]"}, "[2]": {"assay": "In vitro metabolic stability in rat liver microsomes", "assay_type": "in vitro ADME", "procedure": "as §1, §2, §3, §4, §5, §6"}, "[3]": {"system": "Candida tropicalis", "parameters": "method as in PMID 26428920", "conditions": "cited from earlier work"}, "[4]": {"system": "Cryptococcus gastricus", "parameters": "method as in PMID 26428920", "conditions": "cited from earlier work"}, "[5]": {"system": "HT29 cells", "parameters": "method as in PMID 16889929", "conditions": "cited from earlier work"}, "[6]": {"system": "P. falciparum 3D7 strain (chloroquine-sensitive)", "parameters": "method as in PMID 29642881, PMID 33689276", "conditions": "P. falciparum 3D7 (chloroquine-sensitive); cited from earlier work"}, "[7]": {"system": "P. falciparum W2 strain (chloroquine-resistant)", "parameters": "method as in PMID 29642881, PMID 33689276", "conditions": "cited from earlier work"}, "[8]": {"conditions": "buffer, 720 h, pH 5; cited from earlier work"}}}
{"smiles": "O=C1NC(c2c[nH]c3ccc(O)cc23)=C/C1=C1\\C(=O)Nc2ccccc21", "note": "[violacein]", "values": [{"measurement": "CLint, in vitro", "setting": "[1]; MLMs", "value": 17.01, "unit": "µL/min/mg"}, {"measurement": "Ln Z", "setting": "[1]; MLMs, time 0 min", "value": 4.605}, {"measurement": "Z (%), remaining percentage of violacein", "setting": "[1]; MLMs, time 0 min", "value": 100, "unit": "%"}, {"measurement": "Ln Z", "setting": "[1]; MLMs, time 3 min", "value": 4.490}, {"measurement": "Z (%), remaining percentage of violacein", "setting": "[1]; MLMs, time 3 min", "value": 89, "unit": "%"}, {"measurement": "Ln Z", "setting": "[1]; MLMs, time 5 min", "value": 4.379}, {"measurement": "Z (%), remaining percentage of violacein", "setting": "[1]; MLMs, time 5 min", "value": 80, "unit": "%"}, {"measurement": "Ln Z", "setting": "[1]; MLMs, time 15 min", "value": 4.244}, {"measurement": "Z (%), remaining percentage of violacein", "setting": "[1]; MLMs, time 15 min", "value": 70, "unit": "%"}, {"measurement": "Ln Z", "setting": "[1]; MLMs, time 30 min", "value": 4.022}, {"measurement": "Z (%), remaining percentage of violacein", "setting": "[1]; MLMs, time 30 min", "value": 56, "unit": "%"}, {"measurement": "Ln Z", "setting": "[1]; MLMs, time 60 min", "value": 3.715}, {"measurement": "Z (%), remaining percentage of violacein", "setting": "[1]; MLMs, time 60 min", "value": 41, "unit": "%"}, {"measurement": "Ln Z", "setting": "[1]; MLMs, time 120 min", "value": 3.385}, {"measurement": "Slope (k), metabolism rate constant", "setting": "[1]; MLMs, ln remaining % vs incubation time", "value": "y = −0.0085x + 4.3405 r^2 = 0.9554 Slope (k) = 0.0085"}, {"measurement": "microsomal CLint at 2 µM", "setting": "[1]; male, C57BL, mouse, mouse liver microsomes, pH 7.4, MLMs", "value": 17, "unit": "µL/min/mg"}, {"measurement": "CLint scaled at 2 µM", "setting": "[1]; male, C57BL, mouse, mouse liver microsomes, pH 7.4, mouse, extrapolated from CLint, in vitro by allometric scaling, read-out: CLint, in vivo", "value": 67, "unit": "mL/min/kg"}, {"measurement": "half-life at 2 µM", "setting": "[1]; male, C57BL, mouse, mouse liver microsomes, pH 7.4, MLMs, 2 μM violacein, 1 mg/mL microsomal protein, NADPH-regenerating system, 37 °C, n = 3, read-out: In vitro elimination half-life (t1/2)", "value": 81, "unit": "min"}, {"measurement": "CLint, in vivo", "setting": "[1]; mouse, extrapolated from CLint, in vitro by allometric scaling", "value": 66.99, "unit": "mL/min/kg"}, {"measurement": "CLint, in vitro", "setting": "[2]; RLMs", "value": 38.41, "unit": "µL/min/mg"}, {"measurement": "Ln Z", "setting": "[2]; RLMs, time 0 min", "value": 4.605}, {"measurement": "Z (%), remaining percentage of violacein", "setting": "[2]; RLMs, time 0 min", "value": 100, "unit": "%"}, {"measurement": "Ln Z", "setting": "[2]; RLMs, time 3 min", "value": 4.495}, {"measurement": "Z (%), remaining percentage of violacein", "setting": "[2]; RLMs, time 3 min", "value": 90, "unit": "%"}, {"measurement": "Ln Z", "setting": "[2]; RLMs, time 5 min", "value": 4.101}, {"measurement": "Z (%), remaining percentage of violacein", "setting": "[2]; RLMs, time 5 min", "value": 60, "unit": "%"}, {"measurement": "Ln Z", "setting": "[2]; RLMs, time 15 min", "value": 3.832}, {"measurement": "Z (%), remaining percentage of violacein", "setting": "[2]; RLMs, time 15 min", "value": 46, "unit": "%"}, {"measurement": "Ln Z", "setting": "[2]; RLMs, time 30 min", "value": 3.371}, {"measurement": "Z (%), remaining percentage of violacein", "setting": "[2]; RLMs, time 30 min", "value": 29, "unit": "%"}, {"measurement": "Ln Z", "setting": "[2]; RLMs, time 60 min", "value": 2.549}, {"measurement": "Z (%), remaining percentage of violacein", "setting": "[2]; RLMs, time 60 min", "value": 13, "unit": "%"}, {"measurement": "Ln Z", "setting": "[2]; RLMs, time 120 min", "value": 1.899}, {"measurement": "Z (%), remaining percentage of violacein", "setting": "[2]; RLMs, time 120 min", "value": 7, "unit": "%"}, {"measurement": "Slope (k), metabolism rate constant", "setting": "[2]; RLMs, ln remaining % vs incubation time", "value": "y = −0.0192x + 4.0344 r^2 = 0.9459 Slope (k) = 0.0192"}, {"measurement": "microsomal CLint at 2 µM", "setting": "[2]; male, rat, rat liver microsomes, pH 7.4, RLMs", "value": 38.4, "unit": "µL/min/mg"}, {"measurement": "CLint scaled at 2 µM", "setting": "[2]; male, rat, rat liver microsomes, pH 7.4, rat, extrapolated from CLint, in vitro by allometric scaling, read-out: CLint, in vivo", "value": 93.7, "unit": "mL/min/kg"}, {"measurement": "half-life at 2 µM", "setting": "[2]; male, rat, rat liver microsomes, pH 7.4, RLMs, 2 μM violacein, 1 mg/mL microsomal protein, NADPH-regenerating system, 37 °C, n = 3, read-out: In vitro elimination half-life (t1/2)", "value": 36, "unit": "min"}, {"measurement": "CLint, in vivo", "setting": "[2]; rat, extrapolated from CLint, in vitro by allometric scaling", "value": 93.72, "unit": "mL/min/kg"}, {"measurement": "MIC", "setting": "[3]", "value": 16, "unit": "µg/mL"}, {"measurement": "MIC", "setting": "[4]", "value": 32, "unit": "µg/mL"}, {"measurement": "IC50", "setting": "[5]", "value": "> 10000", "unit": "nM"}, {"measurement": "IC50", "setting": "[6]", "value": "~400", "unit": "nM"}, {"measurement": "IC50", "setting": "[7]", "value": 500, "unit": "nM"}, {"measurement": "Residual pigment remaining unaltered", "setting": "[8]", "value": "more than 80%"}]}
